Several values for one entry are separate records, joined by “and”; a condition that tells them apart may be missing. Equal values may be shown once.
Tests used:
cultured goblet cells = experiment: Goblet cell proliferation, Alamar Blue (Example 2); format: cell-based, rat; details: serum-free media
Experimental: The culturing of conjunctival goblet cells from explant cultures was as previously described in Shatos, M. et al., “Isolation, Characterization, and Propagation of Rat Conjunctival Goblet Cells In Vitro,” IOVS 42:1455-1464 (2001), the entire content of which is incorporated herein by reference. The tissue was finely minced and individual pieces were anchored onto scored 6-well cultures dishes in 0.5 mL of complete RPMI-1640 (supplemented with 10% FBS, 2 mM glutamine and 100 μg/mL penicillin-streptomycin) and incubated at 37° C. in a humidified 5% CO2-atmosphere. Explant cultures were refed every 2 days. Within a few days, goblet cells migrated from the pieces and began to proliferate. After approximately one week, the tissue plugs were removed and the goblet cells were allowed to grow to confluence. […]
Cell proliferation was measured using Alamar Blue from Biosource (Invitrogen Corporation, Carlsbad, Calif.) according to the manufacture's protocol. […] After 24 hours, 10% Alamar Blue was added for 6 hours and the absorbance was read at 570 and 600 nm on a Benchmark Plus (Biorad). The percentage of Alamar Blue reduction was calculated according to the manufacture's instructions. […]

[1] = system: Scopolamine Induced Rat Dry Eye Model; experiment: Scopolamine induced rat dry eye model, Schirmer test (Example 5); format: in vivo; details: ± SD
[2] = system: Scopolamine Induced Rat Dry Eye Model; experiment: Scopolamine induced rat dry eye model, tear fluorescein clearance (Example 5); format: in vivo; details: ± SD
Experimental: Dry eye was induced using scopolamine hydrobromide (Sigma-Aldrich, St. Louis, Mo.), which was continuously and systemically delivered to the animals via an osmotic pump (2ML4 Alzet®; CedarLane, Burlington, Ontario) filled with scopolamine and implanted subcutaneously in the mid dorsal area between the scapulae. Scopolamine was delivered for a twenty-eight day period at 12.5 mg/day, which translated to 30.0±1.5 mg/kg via osmotic pump.
Treatments for G2-G6 continued daily for seventeen days (up to an including day twenty-one). Thereafter, treatments were terminated but the study continued for another week. During treatment, each animal was anesthetized in an isoflurane chamber. Once asleep, each animal received a 5 μL topical instillation of test article into the lower conjunctival sac of both eyes using a calibrated micropipette. If a clinical endpoint was also being tested, the test article was topically instilled at the end of the testing.
[…] Tear fluorescein clearance was evaluated as described for humans (Alfonso, A. A., et al., “Correlation of Tear Fluorescein Clearance and Schirmer Test Scores with Ocular Irritation Symptoms,” Ophthalmology 106:803-810 (1999), which is incorporated herein by reference in its entirety) and modified for rats (Chen, W., et al., “Keratoconjunctivitis Sicca Modifies Epithelial Stem Cell Proliferation Kinetics in Conjunctiva,” Cornea 26:1101-1106 (2007), which is incorporated herein by reference in its entirety). Animals were lightly sedated with Isoflurane and two microliters of 1% sodium fluorescein (Sigma-Aldrich, St. Louis, Mo.) solution (in sterile saline) was applied to the lower conjunctival sac. The animals awoke within two minutes. After fifteen minutes, the animals were re-sedated and the fluorescein-stained tear fluid was collected with a phenol-red cotton thread (as described for Schirmer testing). The threads were immediately sealed in 1.5 mL polypropylene Eppendorf tubes shielded from light until fluorophotometric analysis. The volume of the collected tear fluid was determined by the length of cotton wetting in mm. After, 100 μl of phosphate-buffered saline (PBS) was added, the tubes were spun at 12,000 rpm for five minutes and the fluid transferred to a 96-well polystyrene microtiter plate (Corning Life Sciences #2592, Fisher Scientific, Nepean, Ontario). A standard well was prepared on each plate, which consisted of a phenol-red thread placed in 100 μl PBS containing 2 μl of 1% sodium fluorescein solution. Fluorescence was measured immediately using a fluorescence microplate reader (FLUOstar OPTIMA, BMG Labtech, Germany) after setting the gain to the standard well. The concentration of fluorescein in tears was calculated from the fluorescence units divided by the mm of cotton wetting (Fu/mm).

[3] = 0.4% group, Day 2, before treatment start (day 5)
[4] = 0.4% topical 1× daily Days 5-21, Day 5 (test before first instillation)
[5] = 0.4% topical 1× daily Days 5-21, Day 7
[6] = 0.4% topical 1× daily Days 5-21, Day 14
[7] = 0.4% topical 1× daily Days 5-21, Day 20
[8] = 1.0% group, Day 2, before treatment start (day 5)
[9] = 1.0% topical 1× daily Days 5-21, Day 5 (test before first instillation)
[10] = 1.0% topical 1× daily Days 5-21, Day 7
[11] = 1.0% topical 1× daily Days 5-21, Day 14
[12] = 2.5% group, Day 2, before treatment start (day 5)
[13] = 2.5% topical 1× daily Days 5-21, Day 5 (test before first instillation)
[14] = 2.5% topical 1× daily Days 5-21, Day 20
[15] = 0.00053% group, Day 2, before treatment start (day 5)
[16] = 0.00053% topical 1× daily Days 5-21, Day 20

Compound: NCCCC[C@@H]1NC(=O)[C@H](CCC(=O)O)NC(=O)c2cc([N+](=O)[O-])ccc2OCCC(C(=O)NCC(=O)O)NC1=O (some centres unmarked) [Compound D3]
- goblet cell proliferation (in words) (cultured goblet cells; concentrations up to 100 μM, by day four): did not stimulate goblet cell proliferation
- Schirmer's Test [1, 3]: 9.6 ± 3.0 mm
- Schirmer's Test ([1]; 0.4% group, Day −1, presurgical, before treatment start (day 5)): 11.9 ± 4.4 mm and 11.9 ± 4.2 mm
- Schirmer's Test [1, 4]: 7.9 ± 3.2 mm
- Schirmer's Test [1, 5]: 7.9 ± 1.6 mm
- Schirmer's Test [1, 6]: 8.6 ± 3.0 mm
- Schirmer's Test [1, 7]: 7.2 ± 1.8 mm
- Schirmer's Test ([1]; 0.4% topical 1× daily Days 5-21, Day 29 (after treatment stopped)): 9.4 ± 2.0 mm
- Schirmer's Test [1, 8]: 9.8 ± 4.0 mm and 9.8 ± 3.8 mm
- Schirmer's Test ([1]; 1.0% group, Day −1, presurgical, before treatment start (day 5)): 11.3 ± 4.5 mm and 11.3 ± 3.0 mm
- Schirmer's Test [1, 9]: 7.9 ± 2.3 mm
- Schirmer's Test [1, 10]: 9.5 ± 4.2 mm
- Schirmer's Test [1, 11]: 7.3 ± 2.3 mm
- Schirmer's Test ([1]; 1.0% topical 1× daily Days 5-21, Day 29 (after treatment stopped)): 9.0 ± 2.9 mm
- Schirmer's Test [1, 12]: 9.8 ± 2.4 mm
- Schirmer's Test ([1]; 2.5% group, Day −1, presurgical, before treatment start (day 5)): 11.5 ± 2.2 mm and 11.5 ± 1.8 mm
- Schirmer's Test [1, 13]: 9.6 ± 1.8 mm
- Schirmer's Test [1, 14]: 9.1 ± 2.3 mm
- Schirmer's Test ([1]; 2.5% topical 1× daily Days 5-21, Day 29 (after treatment stopped)): 7.7 ± 1.6 mm
- Tear Fluorescein Clearance [2, 3]: 516 ± 305 FU/mm
- Tear Fluorescein Clearance ([2]; 0.4% group, Day −1, baseline, before treatment start (day 5)): 288 ± 247 FU/mm
- Tear Fluorescein Clearance [2, 4]: 969 ± 732 FU/mm
- Tear Fluorescein Clearance [2, 5]: 296 ± 156 FU/mm
- Tear Fluorescein Clearance [2, 6]: 635 ± 599 FU/mm
- Tear Fluorescein Clearance [2, 7]: 667 ± 508 FU/mm
- Tear Fluorescein Clearance [2, 8]: 880 ± 673 FU/mm
- Tear Fluorescein Clearance ([2]; 1.0% group, Day −1, baseline, before treatment start (day 5)): 575 ± 682 FU/mm
- Tear Fluorescein Clearance [2, 9]: 550 ± 369 FU/mm
- Tear Fluorescein Clearance [2, 10]: 1098 ± 639 FU/mm
- Tear Fluorescein Clearance [2, 11]: 686 ± 306 FU/mm
- Tear Fluorescein Clearance ([2]; 1.0% topical 1× daily Days 5-21, Day 20): 1067 ± 773 FU/mm
- Tear Fluorescein Clearance [2, 12]: 777 ± 592 FU/mm
- Tear Fluorescein Clearance ([2]; 2.5% group, Day −1, baseline, before treatment start (day 5)): 428 ± 312 FU/mm
- Tear Fluorescein Clearance [2, 13]: 671 ± 344 FU/mm
- Tear Fluorescein Clearance ([2]; 2.5% topical 1× daily Days 5-21, Day 7): 561 ± 231 FU/mm
- Tear Fluorescein Clearance ([2]; 2.5% topical 1× daily Days 5-21, Day 14): 791 ± 235 FU/mm
- Tear Fluorescein Clearance [2, 14]: 673 ± 170 FU/mm

Compound: NGF: nerve growth factor (recombinant human), positive control
- goblet cell proliferation (in words) (cultured goblet cells; NGF 10 pM to 10 nM, up to day four): did not increase proliferation
- Schirmer's Test [1, 15]: 9.9 ± 4.9 mm and 9.9 ± 4.8 mm
- Schirmer's Test ([1]; 0.00053% group, Day −1, presurgical, before treatment start (day 5)): 11.2 ± 3.7 mm and 11.2 ± 3.2 mm
- Schirmer's Test [1, 16]: 7.1 ± 2.4 mm
- Tear Fluorescein Clearance [2, 15]: 933 ± 824 FU/mm
- Tear Fluorescein Clearance ([2]; 0.00053% group, Day −1, baseline, before treatment start (day 5)): 483 ± 562 FU/mm
- Tear Fluorescein Clearance ([2]; 0.00053% topical 1× daily Days 5-21, Day 5 (test before first instillation)): 804 ± 432 FU/mm
- Tear Fluorescein Clearance ([2]; 0.00053% topical 1× daily Days 5-21, Day 7): 1080 ± 572 FU/mm
- Tear Fluorescein Clearance ([2]; 0.00053% topical 1× daily Days 5-21, Day 14): 1097 ± 1112 FU/mm
- Tear Fluorescein Clearance [2, 16]: 861 ± 414 FU/mm
